According to US20200237852A1, “Small Molecule Enhancers of Paneth Cell Function and Differentiation” (Massachusetts Institute of Technology, priority 2019, published 2020):

Columns and labels:
[1] = system: ISC-enriched organoids in ENR+CD; assay: 384-well primary screen of 6-day PC differentiation, secreted LYZ (LYZ.NS, LYZ.S); type: cell-based, C57BL/6 mice; details: 6-day ENR+CD+library treatment; SSMD > 0.997 and z-scored FC > 1.282
Method: This library offers translational advantages as many of the molecules are either presently used in the clinic for a wide variety of conditions or have been used in clinical trials and animal models.
To prepare for “2.5D” plating, cell-laden Matrigel and media were homogenized via mechanical disruption and centrifuged at 300 g for 3 min at 4° C. Supernatant was removed and the pellet washed and spun in basal culture medium repeatedly until the cloudy Matrigel above the cell pellet was gone. On the final wash, pellet was resuspended in basal culture medium, the number of organoids counted, and the cell pellet was resuspended in ENR+CD medium at ˜7 clusters/μL. 384-well plates were first filled with 10 μL of 70% Matrigel (30% basal media) coating in each well using a Tecan Evo 150 Liquid Handling Deck, and allowed to gel at 37° C. for 5 minutes. […] Compound libraries were pinned into prepped cell plates using 50 nL pins into 30 μL media/well. Cells were cultured at 37° C. with 5% CO2 for six days in ENR+CD medium supplemented with the tested compounds with a media change at three days. On day six, lysozyme secretion and cell viability were assessed using Lysozyme Assay Kit (EnzChek) and CellTiter-Glo 3D Cell Viability Assay (Promega), respectively, according to the manufacturers' protocols. […]

[2] = system: ISC-enriched organoids in ENR+CD; assay: 384-well secondary screen in ENR+CD incl. early vs. full treatment, secreted LYZ (LYZ.NS, LYZ.S); type: cell-based, C57BL/6 mice
Source text: We again assessed treatment effect size with replicate SSMD (using a difference between well replicates and median assay value for all same-plate control wells—see Materials and Methods, High-throughput screening: 384-well secondary screen format and early vs. full treatment analysis) and hits were considered statistically validated by an SSMD greater than the false-positive-derived cutoffs (βα1=0.89 for 8 replicates with alpha=0.05; see Materials and Methods, High-throughput screening: 384-well secondary screen format and early vs. full treatment analysis) for both LYZ.NS and LYZ.S assays (FIG. 7A). Per this new cutoff, 10 dose-treatment combinations corresponding to 7 small molecules were chosen as hits, with every passing dose-treatment having a greater than 0 ATP effect size.
For 384-well plate high-throughput screening, ISC-enriched organoids were passaged and split to single cells with TyrpLE (Thermo Fisher Scientific) and cultured for 2-3 days in ENR+CVY prior to transfer to a “2.5-D” 384-well plate culture system. To prepare for “2.5D” plating, cell-laden Matrigel and media were homogenized via mechanical disruption and centrifuged at 300 g for 3 min at 4° C. Supernatant was removed and the pellet washed and spun in basal culture medium repeatedly until the cloudy Matrigel above the cell pellet was gone. On the final wash, pellet was resuspended in basal culture medium, the number of organoids counted, and the cell pellet was resuspended in ENR+CD medium at ˜7 clusters/μL. 384-well plates were first filled with 10 μL of 70% Matrigel (30% basal media) coating in each well using a Tecan Evo 150 Liquid Handling Deck, and allowed to gel at 37° C. for 5 minutes. Then 30 μL of cell-laden media was plated at the center of each well of 384-well plates with the liquid handler, and the plates were spun down at 50 g for 1 minute to embed organoids on the Matrigel surface. Compound libraries were pinned into prepped cell plates using 50 nL pins into 30 μL media/well. Cells were cultured at 37° C. with 5% CO2 for six days in ENR+CD medium supplemented with the tested compounds with a media change at three days. On day six, lysozyme secretion and cell viability were assessed using Lysozyme Assay Kit (EnzChek) and CellTiter-Glo 3D Cell Viability Assay (Promega), respectively, according to the manufacturers' protocols. Briefly, screen plates were washed 3× with FluoroBrite basal media (2 mM GlutaMAX and 10 mM HEPES in FluoroBrite DMEM (Thermo Fisher Scientific)) using a BioTek 406 plate washer with 10 min incubations followed by a 1 min centrifugation at 200 g to settle media between washes. After removal of the third wash, 30 μL of non-stimulated FluoroBrite basal media was added to each screen well using a Tecan Evo 150 Liquid Handling Deck from a non-stimulated treatment master plate, and plates were incubated for 30 min at 37° C. After 30 minutes, the top 15 μL of media from each well of the screen plate was transferred to a non-stimulated LYZ assay plate containing 15 μL of 20× DQ LYZ assay working solution using a Tecan Evo 150 Liquid Handling Deck. The non-stimulated LYZ assay plate was covered, shaken for 10 min, incubated for 50 min at 37° C., then fluorescence measured (shake 10 s; […]/518 nm) using a Tecan M1000 Plate Reader. After the media transfer to the non-stimulated LYZ assay plate, the remaining media was removed from the screen plate and 30 μL of Stimulated FluoroBrite basal media (supplemented with 10 μM CCh) was added to each screen well using a Tecan Evo 150 Liquid Handling Deck from a stimulated treatment master plate, and plates were incubated for 30 min at 37° C. After 30 minutes, the top 15 μL of media from each well of the screen plate was transferred to a stimulated LYZ assay plate containing 15 μL of 20× DQ LYZ assay working solution using a Tecan Evo 150 Liquid Handling Deck. […]

[3] = system: conventional organoid (ENR); assay: 384-well screen in conventional organoid (ENR), secreted LYZ (LYZ.NS, LYZ.S); type: cell-based, C57BL/6 mice; details: 6-day ENR+treatment, single treatment-dose
[4] = system: mature PC (CD24-mid & LYZ+) and secretory precursor (CD24-hi) populations; assay: Flow cytometry profiling of organoids in 2.5-D (CD24, LYZ); type: cell-based, C57BL/6 mice; details: 6-day ENR+CD+treatment, fraction of viable cells, n=3 bio. donors
Source text: Cells processed for flow cytometry were first gated to exclude potential debris or doublets (via widely accepted forward and side scatter gating), and subsequently gated for viability (via Zombie-violet viability dye exclusion), all viable cells were considered for CD24 & LYZ expression analysis. […] For flow cytometry profiling of the 6 validate small molecules, ISC-enriched ‘small clusters’ in 3D Matrigel culture were passaged to a “2.5D” 96-well plate culture system for six days of ENR, or ENR+CD+drug culture in the same manner as described previously with the exception of plating in 96-well plates prepared with a polymerized 70% Matrigel coating in each well. Plates were centrifuged at 50 g for 1 min at 4° C. to allow for cells to partially embed in Matrigel coating. Drugs were pinned into their respective wells using the Tecan from a drug stamp plate. Media was changed at day three, including pinning of the drug treatments. At day six, cells were washed 3× with basal media, then harvested from Matrigel by mechanical disruption in TrypLE Express to remove Matrigel and dissociate organoids to single cells. After vigorous pipetting and incubation at 37° C. for 20 mins, dissociated organoids were strained through a 96-well filter plate with a 30-40 μm filter (Pall) into an ultra low-bind 96-well plate (Costar) by centrifuging at 300×g for 3 mins at 4° C. The cell filtrate was centrifuged again at 300×g for 3 mins at 4° C. to pellet the cells. Cell pellets were resuspended in FACS buffer (2% FBS in PBS0), then transferred to an ultra low-bind 96-well plate for flow prep. Cells were stained with Zombie-violet viability dye (BioLegend) at 100× for viability staining and/or antibody staining solution. FITC-conjugated antibody for lysozyme and APC-conjugated antibody for CD24 were used at 100× dilution (BioLegend). Flow cytometry was performed using a LSR Fortessa (BD; Koch Institute Flow Cytometry Core at MIT). Flow cytometry data was analyzed using FlowJo X v10.1 software.

6-day ENR+CD cells [5] = assay: Long-term (48-hour) modulators of basal and CCh-induced LYZ secretion; type: cell-based, murine; details: 48-hour treatment
Source text: We next sought to profile potential long-term modulators of differentiated PC survival and antimicrobial secretion, as well as gauge the interaction between long-term modulators and short-term induced secretion (via CCh). To accomplish this, we employed a similar set up as in the short-term experiment, with the exception that upon plating day 4 ENR+CD cells we additionally supplemented in either MDP, LPS, TNF-α, or IFN-γ for the additional 2 days in culture and assayed all conditions for both basal and CCh-induced LYZ secretion over 3 hours on day 6 of differentiation (FIG. 3A). […] Additionally, we see that the long-term addition reduces CCh-induced secretory function relative to the untreated control for all agents (FIG. 3D).
Small intestinal crypts were isolated from C57BL/6 mice of both sexes, aged between three to six months in all experiments. Crypts were then cultured in a Matrigel culture system. Briefly, crypts were resuspended in basal culture medium (Advanced DMEM/F12 with 2 mM GlutaMAX and 10 mM HEPES; Thermo Fisher Scientific) at a 1:1 ratio with Corning™ Matrigel™ Membrane Matrix—GFR (Fisher Scientific) and plated at the center of each well of 24-well plates. Following Matrigel polymerization, 500 μL of small intestinal crypt culture medium (basal media plus 100× N2 supplement, 50×B27 supplement; Life Technologies, 500× N-acetyl-L-cysteine; Sigma-Aldrich) supplemented with growth factors EGF—E (50 ng/mL, Life Technologies), Noggin—N (100 ng/mL, PeproTech) and R-spondin 1—R (500 ng/mL, PeproTech) and small molecules CHIR99021—C (3 μM, LC Laboratories) and valproic acid—V (1 mM, Sigma-Aldrich) was added to each well. ROCK inhibitor Y-27632—Y (10 μM, R&D Systems) was added for the first 2 days of culture. Cells were cultured at 37° C. with 5% CO2, and cell culture medium was changed every other day. After 6 days of culture, crypt organoids were isolated from Matrigel by mechanical dissociation. To expand enriched ISCs (ENR+CV/Y) or Paneth Cells (ENR+CD), organoids were cultured in 24-well plates, suspended in 40 uL 3-D gels (50-50 GFR MATRIGEL®, Basal culture media), with 500 uL of crypt media supplemented with necessary growth factors and small molecules. ROCK inhibitor (Y) was added for the first two days of ISC culture following reconstitution from cryopreservation or trypLE passaging to single cells. Cell culture medium was changed every other day. After 4 days of culture in ENR+CV, cell clusters were differentiated to PCs under the ENR+CD condition for 96-well short and long-term screens. For 384-well differentiation screens, 4-day ENR+CV clusters were passaged to single cells using trypLE, replated and expanded another 3 days in 3-D ENR+CVY and then passaged directly into screens.
For 96-well plate high-throughput screening, 4-day differentiated (ENR+CD) cell clusters in 3D Matrigel were transferred to a “2.5-D” 96-well plate culture system. Briefly, cell culture gel and medium were homogenized via mechanical disruption and centrifuged at 300 g for 3 min at 4° C. […] On the last repeat, pellet was resuspended in basal culture medium, the number of cell clusters counted, and centrifuged at 300 g for 3 min at 4° C. […] At end time points (following 2 days in culture and 3 hours of stimulation), lysozyme secretion and cell viability were assessed using Lysozyme Assay Kit and CellTiter-Glo 3D Cell Viability Assay (Promega), respectively, according to the manufacturers' protocols. […]

6-day ENR+CD cells [6] = assay: Cell pellet ATP after short-term (3-hour) stimulation, 2.5-D 96-well platform; type: cell-based, murine; details: CCh: adj. p<0.01 for 10 and 100 μM doses
Source text: We first sought to profile the potential short-term actors, IFN-γ, LPS, and CCh, and see if with the added resolution of this first-of-its-kind PC platform, we might be able to determine high-resolution EC50's. To generate sufficient cells for plating out all necessary conditions we first expanded and enriched ISCs in traditional 3-D culture and subsequently differentiated for 4 days towards PCs (ENR+CD). Next, we passaged and plated these cells into 96-well plates as 2.5-D and continued differentiating for an additional 2 days in ENR+CD. On day 6 of differentiation, each well was then washed with basal media repeatedly and stimulated with its respective agent, with a measurement of supernatant LYZ paired to cell pellet ATP (FIG. 2A). This screen was repeated on three separate occasions with cells from three distinct murine donors and analyzed combined. We first wanted to determine the approximate standardized effect size of each treatment at each dose, which was accomplished through the replicate-based strictly standardized mean difference (SSMD), an effect size measure based on the statistics of contrast variables, and particularly useful in screening applications as it is a measure which takes into account both mean difference and variance in a single measure. […]

6-day ENR+CD cells [7] = assay: Short-term (3-hour) stimulation of LYZ secretion, 2.5-D 96-well platform; type: cell-based, murine; details: 3-hour stimulation, across all tested doses
Source text: We first sought to profile the potential short-term actors, IFN-γ, LPS, and CCh, and see if with the added resolution of this first-of-its-kind PC platform, we might be able to determine high-resolution EC50's. To generate sufficient cells for plating out all necessary conditions we first expanded and enriched ISCs in traditional 3-D culture and subsequently differentiated for 4 days towards PCs (ENR+CD). Next, we passaged and plated these cells into 96-well plates as 2.5-D and continued differentiating for an additional 2 days in ENR+CD. On day 6 of differentiation, each well was then washed with basal media repeatedly and stimulated with its respective agent, with a measurement of supernatant LYZ paired to cell pellet ATP (FIG. 2A). This screen was repeated on three separate occasions with cells from three distinct murine donors and analyzed combined. We first wanted to determine the approximate standardized effect size of each treatment at each dose, which was accomplished through the replicate-based strictly standardized mean difference (SSMD), an effect size measure based on the statistics of contrast variables, and particularly useful in screening applications as it is a measure which takes into account both mean difference and variance in a single measure. […] In total, we see that our 2.5-D platform does provide a reasonable system for assessing and screening for potential short-term modulators of PC antimicrobial secretion.
Small intestinal crypts were isolated from C57BL/6 mice of both sexes, aged between three to six months in all experiments. Crypts were then cultured in a Matrigel culture system. Briefly, crypts were resuspended in basal culture medium (Advanced DMEM/F12 with 2 mM GlutaMAX and 10 mM HEPES; Thermo Fisher Scientific) at a 1:1 ratio with Corning™ Matrigel™ Membrane Matrix—GFR (Fisher Scientific) and plated at the center of each well of 24-well plates. […]

Row | Compound | primary screen hit status in LYZ.NS and LYZ.S assays [1] | biological potency compared with Bosutinib (LYZ assays) ([2]; 6-day ENR+CD+treatment) | validation in secondary screen (SSMD above cutoff for both LYZ.NS and LYZ.S) ([2]; 6-day ENR+CD+treatment vs ENR+CD+DMSO, cutoff 0.89, 8 replicates) | LYZ.S reading versus ENR+DMSO [3] | secretory precursor (CD24-hi) population relative to control [4] | effect size of reduction of CCh-induced secretory function relative to untreated control (6-day ENR+CD cells [5]; CCh-induced secretion over 3 hours on day 6) | change in basal LYZ secretion (SSMD effect) (6-day ENR+CD cells [5]; basal secretion over 3 hours on day 6) | effect on cellular ATP (6-day ENR+CD cells [6]) | SSMD effect size as short-term modulator of LYZ secretion (6-day ENR+CD cells [7]) | LYZ.NS/ATP, early versus full treatment ([2]; ENR+CD, 240 nM) | ATP-normalized LYZ assays (LYZ.NS/ATP, LYZ.S/ATP), early versus full treatment ([2]; ENR+CD, across all doses)
1 | Cc1cn(-c2cc(NC(=O)c3ccc(C)c(Nc4nccc(-c5cccnc5)n4)c3)cc(C(F)(F)F)c2)cn1 [Nilotinib] | strongest LYZ assay-performing treatment-dose | the more biologically potent | multiple validated doses | significantly lower | higher proportion |  |  |  |  |  | 
2 | IFN-γ: cytokine interferon-gamma |  |  |  |  |  | fairly moderate | moderate increase in secretion | no significant changes in cellular ATP | fairly weak effect sizes |  | 
3 | NC(=O)c1ccc(-c2nc(-c3ccc4c(c3)OCO4)c(-c3ccccn3)[nH]2)cc1 [SB431542] | strongest LYZ assay-performing treatment-dose |  |  |  |  |  |  |  |  | significant (adj. p<0.05) difference between early and full treatment | suggestive trend across all doses
